Measured values reported in patent publication US10604487B2, “Pyridinol derivative or pharmaceutically acceptable salt thereof, and pharmaceutical composition containing same as active ingredient” (Research Cooperation Foundation of Yeungnam University, priority 2016, dated 2020).
Read-outs that look alike come from different tables or passages of the source.

Key:
[1] = tested on: TNBS-induced colitis; test: In vivo efficacy of oral administration in TNBS-induced inflammatory bowel disease model; set-up: species or system Sprague Dawley rats; details: rat; for Body weight recovery rate (%) / Bowel weight recovery rate (%): oral, 5 days
Experimental: 7 to 8-week-old Sprague Dawley rats were purchased from Orient Bio Korea, and after stabilization with typical solid feed for 3 days, were used as animals for the experiment. The animals were freely supplied with feed and water during the experiment, and a cage was maintained at a temperature of 25±1° C. and a relative humidity of 50±10%. Lighting was adjusted to a 12-hour light-dark cycle using an automatic lightening system. In regard to experimental groups, there were 5 groups each consisting of 6 rats having an average weight of 180±10 g (a control group, a group administered TNBS only, a group administered TNBS+300 mg/kg of sulfasalazine, a group administered TNBS+10 mg/kg of GLPG, and a group administered TNBS+1 mg/kg of test drug), which were divided according to a randomized block design.
After rats that had been fasting for 24 hours were anesthetized with diethyl ether, a 1 mL syringe connected with a polyethylene catheter was used to slowly inject 0.8 mL of 5% TNBS diluted with 50v/v % ethanol into the lumen of a colon, and then the rats turned upside down and kept upright for 60 seconds to prevent the leakage of 5% TNBS from the anus. In the control group, only a vehicle [50 v/v % ethanol] was injected in the same manner as in the other groups (Thapa et al., 2008).
To examine a drug effect, for 5 days from the day following the TNBS treatment, a drug was administered at a predetermined time every day.
A change in the body weights of the rats was observed using a digital mass meter from the fasting stage to the end of the TNBS administration and drug administration processes.
The colon of each rat was extracted and tissue 5 to 6 cm from the anus was cut into 1-cm pieces, and then the weight of the tissue was measured.

[2] = tested on: TNF-α-induced adhesion of monocytes to intestinal epithelial cells; test: Inhibitory activity against TNF-α-induced adhesion of monocytes (U937) to intestinal epithelial cells (HT-29); assay type: cell-based, human; details: for inhibition at 1 µM / IC50: Homo sapiens; for IC50: TNF-α-induced, read-out: IC50 (adhesion inhibition)
Experimental: HT-29 human colorectal cancer-derived epithelial cells and U937 human-derived monocytic cells were cultured in an RPMI 1640 medium containing 10% FBS and 1% penicillin/streptomycin (PS) at 37° C. under a condition of 5% CO2, and when the cells were grown to 80% or more in a culture flask, they were subcultured in a ratio of 1:3 to be used in this test. The HT-29 cells were cultured in a 24-well plate at a concentration of 2×10^5 cells/cm2, and then the medium only containing 1% FBS and 1% PS was pretreated with a test drug for 1 hour. Afterward, BCECF-loaded U937 cells by being treated with 10 μg/mL of BCECF-AM at 37° C. for 30 minutes and 10 ng/mL of TNF-α reacted with the HT-29 cells previously treated with the test drug at 37° C. for 3 hours. After the reaction, the medium was removed, and then the cells were washed with PBS twice to remove U937 cells that were not adhered. In a subsequent step, for cell lysis, 0.1% Triton X-100 (0.1 M Tris) was treated to allow a reaction at room temperature for 30 minutes, and then fluorescence was measured using a Fluostar optima microplate reader (BMG LABTECH, Germany) to quantify the cells (Carvalho et al., 1996; Thapa et al., 2008).

[3] = Cytotoxicity test (MTT), U937; assay type: cell-based; details: human, U937, 48 h; for viability at 48 h, 0.01 µM / viability at 48 h, 0.1 µM / viability at 48 h, 1 µM / viability at 48 h, 10 µM / viability at 48 h, 100 µM: U937 cells (monocytic blood cancer-derived cell line), read-out: Cell viability (% of control); for IC50 at 48 h: U937 cells
Experimental: (§1) The human colorectal cancer cell line HT-29 and the monocytic blood cancer-derived cell line U937 were cultured in a RPMI 1640 medium containing 10% FBS and 1% penicillin/streptomycin (PS) at 37° C. under a condition of 5% CO2, and when the cells used herein were grown to 80% or more, they were subcultured at a ratio of 1:3.
(§2) Each type of cells were cultured in a 96 well plate at a concentration of 1×10^5 cells/cm2, treated with a test compound by concentration in a medium only containing 1% FBS and 1% PS at 37° C. under a condition of 5% CO2 for 48 hours and reacted with 5 mg/mL of a 3-[4,5-dimethylthiazol-2-yl]-2,5-diphenyltetrazolium bromide (MTT) reagent for 4 hours, and then the medium was completely removed, the cells were treated with DMSO, formazan crystals were dissolved for 30 minutes, and then absorbance was measured at 540 nm.

[4] = Cytotoxicity test (MTT), HT-29; assay type: cell-based; details: human, HT-29, 48 h; for viability at 48 h, 0.01 µM / viability at 48 h, 0.1 µM / viability at 48 h, 1 µM / viability at 48 h, 10 µM / viability at 48 h, 100 µM: HT-29 cells (colorectal cancer cell line), read-out: Cell viability (% of control); for IC50 at 48 h: HT-29 cells
Experimental: as §1, §2

[5] = 1 μM, Table 8, read-out: 1 μM concentration inhibitory activity
[6] = read-out: IC50 (μM), cytotoxicity
[7] = 1 μM test drug, HT-29/U937 adhesion, 10 ng/mL TNF-α
[8] = 1 μM test drug, HT-29/U937 adhesion, 10 ng/mL TNF-α, read-out: Inhibitory activity (%)

SMILES | Body weight recovery rate (%) ([1]; 1 mg/kg) | Bowel weight recovery rate (%) ([1]; 1 mg/kg) | viability at 48 h, 0.01 µM [3] [%] | viability at 48 h, 0.1 µM [3] [%] | viability at 48 h, 1 µM [3] [%] | viability at 48 h, 10 µM [3] [%] | viability at 48 h, 100 µM [3] [%] | IC50 at 48 h [3] [µM] | viability at 48 h, 0.01 µM [4] [%] | viability at 48 h, 0.1 µM [4] [%] | viability at 48 h, 1 µM [4] [%] | viability at 48 h, 10 µM [4] [%] | viability at 48 h, 100 µM [4] [%] | IC50 at 48 h [4, 6] [µM] | inhibition at 1 µM [2, 8] [%] | other results
Cc1nc(NS(=O)(=O)c2ccc(C(F)(F)F)cc2)c(C)c(C)c1O [Compound 22-3, N-(5-hydroxy-3,4,6-trimethylpyridin-2-yl)-4-(trifluoromethyl)benzenesulfonamide] | 25.0 | 50.3 | 96.9 ± 1.5 | 93 ± 1.5 | 87.5 ± 2.2 | 75.5 ± 1.9 | 53.3 ± 1.5 | > 100 | 92.5 ± 1.5 | 95 ± 0.9 | 89.3 ± 4.7 | 91.8 ± 1.8 | 72.6 ± 3.2 | > 100 | – | inhibition at 1 µM [2, 5]: 87.3%; IC50 ([2]; HT-29/U937 adhesion): 0.32 µM
Cc1nc(NC(=S)Nc2cccc(C(F)(F)F)c2)c(C)c(C)c1O [Compound 18-9, 1-(5-Hydroxy-3,4,6-trimethylpyridin-2-yl)-3-(3-(trifluoromethyl)phenyl)thiourea] | 74.9 | 87.2 | – | – | – | – | – | – | – | – | – | – | – | – | – | Inhibitory activity (%) [2, 7]: 93.0%
Cc1nc(NC(=S)Nc2ccc(Cl)c(Cl)c2)c(C)c(C)c1O [Compound 18-8, 1-(3,4-dichlorophenyl)-3-(5-hydroxy-3,4,6-trimethylpyridin-2-yl)thiourea] | 72.4 | 84.6 | – | – | – | – | – | – | – | – | – | – | – | – | – | Inhibitory activity (%) [2, 7]: 87.2%
O=C(O)c1cc(/N=N/c2ccc(S(=O)(=O)Nc3ccccn3)cc2)ccc1O [Sulfasalazine, reference compound] | – | – | – | – | – | – | – | – | – | – | – | – | – | – | – | Morphology observation of colon (visual symptoms, adhesion between organs, intestinal hyperemia) ([1]; 300 mg/kg, after 5-day administration): considerably inhibited; Body weight recovery rate (%) ([1]; 300 mg/kg): 50.5%; Bowel weight recovery rate (%) ([1]; 300 mg/kg): 69.6%
Cc1nc(NC(=O)OCC(C)C)c(C)c(C)c1O [Compound 20-3, isobutyl (5-hydroxy-3,4,6-trimethylpyridin-2-yl)carbamate] | – | – | 86.3 ± 0.4 | 86.3 ± 0.9 | 80.9 ± 2.1 | 82.2 ± 0.5 | 72.5 ± 1.9 | > 100 | 101 ± 1.9 | 91 ± 3.6 | 93.3 ± 4.7 | 83.7 ± 3.3 | 71.2 ± 3.4 | > 100 | 6 | –
COC(=O)Nc1nc(C)c(O)c(C)c1C [Compound 20-1, methyl (5-hydroxy-3,4,6-trimethylpyridin-2-yl)carbamate] | – | – | 97.5 ± 1.6 | 95.1 ± 5.3 | 93.7 ± 1.2 | 80.9 ± 12.8 | 89.6 ± 1 | > 100 | 89.7 ± 6.3 | 84.9 ± 1.9 | 85 ± 3.4 | 82.6 ± 1.3 | 73.7 ± 4.5 | > 100 | 9.8 | –
Cc1nc(NC(=O)Nc2ccccc2)c(C)c(C)c1O [Compound 16-2, 1-(5-hydroxy-3,4,6-trimethylpyridin-2-yl)-3-phenylurea] | 69.0 | 81.6 | 89.9 ± 2.6 | 88.9 ± 1.9 | 87.1 ± 2 | 81.7 ± 2 | 78 ± 0.6 | > 100 | 103 ± 1.9 | 103 ± 1.6 | 103 ± 3.5 | 93.4 ± 7.2 | 65.2 ± 6.6 | > 100 | – | inhibition at 1 µM [2, 5]: 76.3%; IC50 ([2]; HT-29/U937 adhesion): 0.41 µM
Cc1nc(NC(=S)NC(=O)c2ccccc2)c(C)c(C)c1O [Compound 18-13, N-((5-Hydroxy-3,4,6-trimethylpyridin-2-yl)carbamothioyl)benzamide] | 93.8 | 94.9 | 99.9 ± 1.3 | 96.8 ± 1.8 | 91.7 ± 3.6 | 79 ± 0.8 | 60.6 ± 0.5 | > 100 | 78.8 ± 3.3 | 75.4 ± 1.3 | 75.4 ± 4.1 | 57.9 ± 5.8 | 36.4 ± 6.1 | 19.1 | ≥ 50 | –
Cc1nc(NC(=O)Nc2cccc3ccccc23)c(C)c(C)c1O [Compound 16-5, 1-(5-hydroxy-3,4,6-trimethylpyridin-2-yl)-3-(naphthalen-1-yl)urea] | – | – | 88.1 ± 1.9 | 85.4 ± 6.4 | 90.9 ± 1.2 | 88.5 ± 2.8 | 79.6 ± 2.7 | > 100 | 105 ± 1.1 | 94.3 ± 2.1 | 78.6 ± 10.1 | 73.4 ± 5.6 | 76.7 ± 1.1 | > 100 | 20.2 | –
CCCNC(=O)Nc1nc(C)c(O)c(C)c1C [Compound 16-1, 1-(5-hydroxy-3,4,6-trimethylpyridin-2-yl)-3-propylurea] | – | – | 89.1 ± 3.5 | 88.4 ± 3.5 | 90 ± 4.8 | 75.2 ± 0.9 | 44.2 ± 0.7 | 15.4 | 94.9 ± 6.5 | 84.4 ± 7.6 | 84.4 ± 4.2 | 70.9 ± 6.2 | 42.8 ± 2.7 | – | 18.2 | IC50 at 48 h ([4]; text of b533, read-out: cytotoxicity IC50 for HT-29): 64.6 µM
Cc1nc(NC(=S)Nc2ccccc2)c(C)c(C)c1O [Compound 18-4, 1-(5-hydroxy-3,4,6-trimethylpyridin-2-yl)-3-phenylthiourea] | – | – | 99.5 ± 2.1 | 101 ± 1.9 | 96.7 ± 1.7 | 96.1 ± 1.4 | 70.6 ± 0.8 | > 100 | 96.6 ± 2.1 | 97 ± 4.4 | 99 ± 5 | 96.6 ± 2.4 | 76 ± 4.9 | > 100 | 49.7 | –
